# Laboratory results as given in patent US20150306107A1, “SAA Derivative Compound Restores eNOS And Inhibits Oxidative Stress-Induced A Diseases In Hypoxia” (JANSFAT BIOTECHNOLOGY CO., LTD., priority 2014, published 2015).
# Key:
# VEGF = assay: Immunohistochemistry of VEGF in isolated pulmonary artery after short-term hypoxia; assay type: cell-based, rat; conditions: short-term acute hypoxia; 40, 80 μM
# Protocol: (§1) In our in vitro short-term experiment, isolated rat pulmonary artery was grown under normoxia (20% O2) or hypoxia (1% O2) at 37° C. for 24 hrs as was previously done (Wu BN, et al. Int J Immunopathol Pharmacol 24:925, 2011). The heart weight and body weight ratio (HW/BW) of the rats treated with one of SPAAX-1, SPAAX-1 RX complex, Sildenafil or Sildenafil RX complex each measured on the 21st hypoxic day. All animal care and the experimental protocols of this study were approved by the Animal Care and Use Committee of the Kaohsiung Medical University. Male Wistar rats (200-250 g), provided by the National Laboratory Animal Breeding and Research Center (Taipei, Taiwan), were housed under constant temperature and controlled illumination. Food and water were available ad libitum.
# (§2) For histological analysis, the rat pulmonary right lung sections or pulmonary artery were fixed in 4% formaldehyde for 1 hour at 4° C. After washing with phosphate buffer saline (PBS), they were sent for paraffin-embedded serial-sections. Serial cross-sections 7 μm thick were obtained from the cross-section of each pulmonary artery. Tissue sections were deparaffinized and rehydrated in an ethanol series. After tissue rehydration, endogenous peroxidase activity was quenched with 3% hydrogen peroxide for 30 minutes, and the sections were gently washed in PBS. […]
# eNOS = assay: Immunohistochemistry of eNOS in isolated pulmonary artery after short-term hypoxia; assay type: cell-based, rat; conditions: short-term acute hypoxia; 40, 80 μM
# Protocol: as §1, §2
substance,measurement,setting,value
L-sodium ascorbate+L-ascorbic acid buffer [ascorbic/ascorbate buffer],IHC of VEGF in isolated pulmonary artery,VEGF,reduced
same,IHC of eNOS in isolated pulmonary artery,eNOS,reduced
